Test results: patent publication US12053480B2, “Methods and pharmaceutical compositions for treating peripheral demyelinating diseases” (INSERM (INSTITUT NATIONAL DE LA SANTE ET DE LA RECHERCHE …, priority 2015, dated 2024)

Experiments:
diabetic (db/db) mice [1] = assay: Sciatic nerve myelin morphometry (toluidine blue, TEM) in diabetic mice; assay type: in vivo, mouse; settings: diabetic mice treated daily for one month
Protocol: Sciatic nerves of 20 and 28 weeks old diabetic mice or 16 and 24 weeks old CMT1A rats treated with TRO19622 drug or PBS were fixed for 20 min in situ with 4% PFA and 2.5% glutaraldehyde, in 0.1 M phosphate buffer (pH7.3). Then nerves were removed and postfixed overnight in the same buffer.
After washing 30 min in 0.2M PBS phosphate buffer, the nerves were incubated with 2% osmic acid in 0.1M phosphate buffer for 90 minutes at room temperature. Then, samples were washed in 0.2M PBS phosphate buffer, dehydrated using ethanol gradient solutions and embedded in epoxy resin. For electron microscopy of sciatic nerves, ultrathin (70 nm) cross-sections were cut and stained with 1% uranylacetate solution and lead-citrate and analyzed using a HITACHI H7100 electron microscope at the ‘Centre des Resources en Imagerie Cellulaire’ (CRIC) (for further details see Cotter et al., 2010^9). […] G-ratio was determined using GRatioCalculator plugin of Image J. At less 200 fibers per animal were analysed.
To go further 16-weeks-old diabetic and control mice were treated daily with vehicle or TRO19622 for one month. One day and two months after drug treatment, myelin was evaluated in the sciatic nerve using toluidine blue staining and transmission electron microscopy (TEM) to measure the g-ratio (axon diameter on total myelinated fiber diameter).

diabetic (db/db) mice [2] = assay: Behavioral tests (rotarod, grip, CatWalk) in diabetic mice; assay type: in vivo, mouse
Protocol: […] Mice and rats were first given a pretraining trial of two days to familiarize them with the rotating rod. For control and diabetic mice latency to fall was measured at fixed speed 10 rpm over a 180 s time as a cut-off. No acceleration testing was performed for mice. For control and CMT1A rats latency to fall and maximum rpm (revolutions per minute) were measured at accelerated speed. […] Each animal underwent three trials a day. For each day, data were averaged for each animal (values from the three trials), normalized according to animal weight and then averaged for each treated group.
[…] The runs were analyzed when the speed of crossing was constant and homogenous. At least three compliant runs were analyzed for each animal Data were averaged per animal, normalized according to animal weight and then per treated group. The resulting data provided quantitative parameters and qualitative walking patterns.
Neuromuscular strength of diabetic mice and CMT rats was assessed in standardized grip strength tests for front, hind and all limbs. All limbs grip strength was measured by rat supporting on the metal grid and pulling the animal's tail toward a horizontal grid connected to a gauge. Front and hind limb grip strength were measured by supporting the forelimbs or hindlimbs respectively and pulling the animal's tail toward a horizontal T-bar connected to a gauge. The maximum force (measured in newtons) exerted onto the T-bar or grid before the animals lost grip was recorded, and the mean of 3 repeated measurements was calculated. All data were normalized according to animal weight.
Finally, although the obesity of db/db diabetic mice hinders functional motor tests, we evaluated their neuromuscular performances during drug treatment using rotarod, grip and Catwalk tests. […] Rotarod and grip strength recoveries were not due to a reduced weight as no change in mice weight was observed during treatment.

CC(C)CCC[C@@H](C)[C@H]1CC[C@H]2[C@@H]3CCC4=C/C(=N\O)CC[C@]4(C)[C@H]3CC[C@]12C [TRO19622, (NZ)—N-[(8S,9S,10R,13R,14S,17R)-10,13-dimethyl-17-[(2R)-6-methylheptan-2-yl]-1,2,6,7,8,9,11,12,14,15,16,17-dodecahydrocyclopenta[a]phenanthren-3-ylidene]hydroxylamine]
axon number and diameter (diabetic (db/db) mice [1]): No differences
g-ratio (diabetic (db/db) mice [1]; compared to vehicle): significant decrease
Catwalk test parameters (diabetic (db/db) mice [2]): no change
myelin thickness, nerve conduction velocity and neuromuscular defects (all these parameters) (diabetic (db/db) mice [2]): steadily improve
effects on MAPK activation, nerve structure and neuromuscular performance after stopping the treatment (diabetic (db/db) mice [2]; 2 months after stopping the treatment): did not last
grip strength (diabetic (db/db) mice [2]; 20 days after treatment): significant increase
rotarod latency (diabetic (db/db) mice [2]; 20 days after treatment): significant increase
